pIC50, pKd: −log10 of the molar value.
How the values were obtained:
[1] = biological target: T1, EF-G on 70S ribosome complexes (preT / postTerm) (Escherichia coli, UniProt P0A6M8); assay: nitrocellulose filtration of ribosome-bound EF-G•[3H]-GDPNP; assay type: binding; conditions: labelled compound; 2 μM EF-G; 92 nM postTerm or naked 70S ribosomes; 1 μM [3H]-GDPNP; 37°C
T1 construct: gene fusA

[2] = biological target: T2, EF-G (free elongation factor G) (Escherichia coli, UniProt P0A6M8); assay: nitrocellulose filtration, Scatchard plot; assay type: binding
T2 construct: gene fusA; purified EF-G, free in solution (no ribosome)
T2 sequence (P0A6M8 2-704): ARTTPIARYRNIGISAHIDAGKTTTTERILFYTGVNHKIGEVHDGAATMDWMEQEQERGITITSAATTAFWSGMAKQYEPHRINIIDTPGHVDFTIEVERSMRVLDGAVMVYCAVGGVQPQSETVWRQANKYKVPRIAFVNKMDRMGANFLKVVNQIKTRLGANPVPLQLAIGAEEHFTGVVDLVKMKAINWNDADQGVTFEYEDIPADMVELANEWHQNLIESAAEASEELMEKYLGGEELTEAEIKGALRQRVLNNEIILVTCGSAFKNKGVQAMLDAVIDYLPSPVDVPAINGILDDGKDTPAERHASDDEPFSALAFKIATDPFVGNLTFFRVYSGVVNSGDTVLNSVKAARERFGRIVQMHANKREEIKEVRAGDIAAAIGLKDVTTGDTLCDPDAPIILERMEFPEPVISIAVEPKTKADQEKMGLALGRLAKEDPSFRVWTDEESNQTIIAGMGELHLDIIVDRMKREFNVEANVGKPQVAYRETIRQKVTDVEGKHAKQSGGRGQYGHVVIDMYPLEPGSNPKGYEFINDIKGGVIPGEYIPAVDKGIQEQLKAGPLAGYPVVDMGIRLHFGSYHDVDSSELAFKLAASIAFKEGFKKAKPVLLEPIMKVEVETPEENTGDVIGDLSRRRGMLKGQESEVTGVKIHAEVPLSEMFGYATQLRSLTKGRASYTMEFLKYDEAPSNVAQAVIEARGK

[3] = biological target: T1, EF-G on 70S ribosome complexes (preT / postTerm); assay: translocation rate by RF2-dependent fMet-Ile release, EF-G recycling; assay type: biochemical; conditions: read-out: I50
[4] = biological target: T2, EF-G (free elongation factor G); assay: nitrocellulose filtration, chase of [3H]-GDP by purified unlabelled GTP; assay type: binding; conditions: read-out: KGTP

T1 sequence (P0A6M8 2-704, one chain of several): as the sequence (P0A6M8 2-704) above

## Nc1nc2c(ncn2[C@@H]2O[C@H](COP(=O)(O)OP(=O)(O)NP(=O)(O)O)[C@@H](O)[C@H]2O)c(=O)[nH]1 [GDPNP]
[1]
  nitrocellulose filtration of ribosome-bound EF-G•[3H]-GDPNP: EF-G, bound to either type of ribosome, had much higher affinity for GDPNP than for GDP

## Nc1nc2c(ncn2[C@@H]2O[C@H](COP(=O)(O)OP(=O)(O)O)[C@@H](O)[C@H]2O)c(=O)[nH]1 [GDP]
[2]
  pKd: ~5.05
[3]
  pIC50: 3.60

## Nc1nc2c(ncn2[C@@H]2O[C@H](COP(=O)(O)OP(=O)(O)OP(=O)(O)O)[C@@H](O)[C@H]2O)c(=O)[nH]1 [GTP]
[4]
  pKd: < 3.22

Reference: article PMC1175996, “Guanine-nucleotide exchange on ribosome-bound elongation factor G initiates the translocation of tRNAs” (Journal of Biology, 2005)
